In US6727253B2, “Treatment of accidental extravasation of anthracyclines” (Antianthra APS, priority 1999, dated 2004):
Read-outs that look alike come from different tables or passages of the source.

Tested on: SC idarubicin induced wounds in mice
Conditions: for AUC / DW / FW / TTW: Table A
Method: The mice were euthanized after healing of all wounds.
[…] Half of the groups served a saline controls, whereas in the other half of the groups ICRF-187 250 mg/kg was administered IP at t=0.

[1] = Example 9, idarubicin 0.05 mg/kg sc + ICRF-187 250 mg/kg IP at t=0
[2] = Example 9, idarubicin 0.25 mg/kg sc + ICRF-187 250 mg/kg IP at t=0
[3] = Example 9, idarubicin 0.75 mg/kg sc + ICRF-187 250 mg/kg IP at t=0
[4] = idarubicin 0.05 mg/kg SC + DEX 250 mg/kg IP at t=0
[5] = idarubicin 0.25 mg/kg SC + DEX 250 mg/kg IP at t=0
[6] = idarubicin 0.75 mg/kg SC + DEX 250 mg/kg IP at t=0, pooled data
[7] = idarubicin 1.50 mg/kg SC + DEX 250 mg/kg IP at t=0

In the case of `C[C@@H](CN1CC(=O)NC(=O)C1)N1CC(=O)NC(=O)C1` [ICRF-187, (+)-1,2-bis(3,5-dioxopiperazinyl-1-yl)propane], the “Mean AUC” value [1] is reported as 4 mm^2 × days, the “Mean DWw ± SEM” value [1] is reported as 13.0 ± 0.0 days and the “Mean TTWw ± SEM” value [1] is reported as 12.0 ± 0.0 days. The Nw/NG [1] was 11%, the “Mean AUC” value [2] was 38 mm^2 × days and the “Mean DWw ± SEM” value [2] was 20.0 ± 0.0 days. The “Mean TTWw ± SEM” value [2] was 6.0 ± 0.0 days, the Nw/NG [2] was 11% and the “Mean AUC” value [3] was 44 mm^2 × days. For the same compound, the “Mean DWw ± SEM” value [3] was 17.5 ± 0.5 days, the “Mean TTWw ± SEM” value [3] was 8.0 ± 0.0 days and the Nw/NG [3] was 22%. For the same compound, the “reduction in the AUC” value (Example 9, idarubicin 0.75 mg/kg sc, ICRF-187 250 mg/kg IP vs saline, p<0.05) was 90%, the AUC [4] was 4 (± 4) mm^2×days and the DW [4] was 13.0 (± 0.0) days. For the same compound, the FW [4] was 11%, the TTW [4] was 12.0 (± 0.0) days and the AUC [5] was 38 (± 38) mm^2×days. The DW [5] was 20.0 (± 0.0) days, the FW [5] was 11% and the TTW [5] was 6.0 (± 0.0) days. For the same compound, the AUC [6] was 42 (± 19) mm^2×days, the DW [6] was 15.6 (± 2.7) days and the FW [6] was 28%. For the same compound, the TTW [6] was 10.2 (± .5) days, the AUC [7] was 183 (± 54) mm^2×days and the DW [7] was 17.8 (± 0.9) days. For the same compound, the FW [7] was 75%, the TTW [7] was 7.7 (± 0.2) days and the “deaths due to the treatment” value (mouse, in vivo) was “no deaths due to the treatment”.
